Laboratory results taken from ChEMBL document CHEMBL2034875, “Bifunctionalized amphilectane diterpenes from the sponge Stylissa cf. massa” (J Nat Prod, 2012).
Calls of active or inactive are those of the source. No cut-off for these calls is given here.

Experiments:
Plasmodium falciparum [1] = assay: Antimalarial activity against Plasmodium falciparum K1 infected in human erythrocytes assessed as inhibition of [3H]hypoxanthine incorporation incubated for 24 hrs prior to hypoxanthine addition measured after 18 hrs by liquid scintillation counting; format: functional, organism-based
[2] = Cytotoxicity against human MCF7 cells assessed as growth inhibition at 25 ug/mL by SRB assay; format: cell-based; details: read-out: GI
Plasmodium falciparum [3] = assay: Antimalarial activity against Plasmodium falciparum K1 infected in human erythrocytes assessed as inhibition of [3H]hypoxanthine incorporation at 10 ug/mL incubated for 24 hrs prior to hypoxanthine addition measured after 18 hrs by liquid scintillation counting; format: functional, organism-based

SMILES | IC50 (Plasmodium falciparum [1]) | inhibition at 25 ug/mL [2] | Activity (Plasmodium falciparum [3])
C=C1CC[C@@]2(N=C=S)[C@H]3[C@H](CC[C@@H]2C)[C@@H](C)C[C@@H](CC(C)(C)NC=O)[C@H]13 | 8.07 µM | < 50% | 
[C-]#[N+][C@@]12CCC(=C)[C@H]3[C@H](CC(C)(C)NC=O)C[C@H](C)[C@@H](CC[C@@H]1C)[C@@H]32 | 0.52 µM | < 50% | 
C[C@H]1[C@@H](O)O[C@@H]2O[C@@]3(C)CC[C@H]4[C@H](C)CC[C@@H]1[C@@]24OO3 [ARTENIMOL] | 0.0038 µM |  | 
C=C1CC[C@@]2(N=C=O)[C@H]3[C@H](CC[C@@H]2C)[C@@H](C)C[C@@H](CC(C)(C)NC=O)[C@H]13 | 8.85 µM | < 50% | 
C=C(C)C[C@@H]1C[C@H](C)[C@H]2CC[C@](C)(NC=O)[C@H]3CCC(=C)[C@@H]1[C@H]23 |  | < 50% | inactive
